According to patent US11440899B2, “Pyrimidine TBK/IKKe inhibitor compounds and uses thereof” (Merck Patent GmbH, priority 2017, dated 2022):
Where a name gives a salt, the structure may show the parent alone.

Tests used:
TBK1 = TBK1 (Homo sapiens (Human), UniProt Q9UHD2); experiment: TBK Biochemical Assay
Procedure: Example 106: TBK Biochemical Assay Test compounds were transferred into Labcyte polypropylene 384 well plates ([…]-25) and diluted to 3 mM using DMSO. 3 mM test compounds were dispensed using Labcyte ECHO dose response module into Greiner 784075 plates (columns 3-12 and 13-22, 10 point 1:4) so that high concentration was 30 uM final. 100 uM of a reference compound (1 uM final high concentration). Backfilling was performed if necessary so that all wells contain 1% DMSO final: add 75 nl DMSO/well into columns 1, 2 and 24 using Labcyte Echo. add 75 nl 1.0 mM staurosporine/well into column 23 using Labcyte Echo (10 uM final) add 4.5 ul enzyme/well using multidrop dispenser add 3 ul substrate/well using multidrop dispenser incubate at 25° C. in Heidolph incubator for 90 min. add 7.5 ul 2× stop buffer using multidrop dispenser read on labchip ez reader II using TBK1.job Raw data files were opened in the Caliper LabChip Reviewer program (Version 3.0.265.0 SP2) and peak assignments were adjusted to reflect “substrate first” with the software's post-run analysis options. A spline-fit baseline was applied using the software's analysis algorithm.

IKKe = IKKe (Homo sapiens (Human), UniProt Q14164); experiment: IKKe Biochemical Assay
Chain of IKKe (Q14164 whole entry, species assumed): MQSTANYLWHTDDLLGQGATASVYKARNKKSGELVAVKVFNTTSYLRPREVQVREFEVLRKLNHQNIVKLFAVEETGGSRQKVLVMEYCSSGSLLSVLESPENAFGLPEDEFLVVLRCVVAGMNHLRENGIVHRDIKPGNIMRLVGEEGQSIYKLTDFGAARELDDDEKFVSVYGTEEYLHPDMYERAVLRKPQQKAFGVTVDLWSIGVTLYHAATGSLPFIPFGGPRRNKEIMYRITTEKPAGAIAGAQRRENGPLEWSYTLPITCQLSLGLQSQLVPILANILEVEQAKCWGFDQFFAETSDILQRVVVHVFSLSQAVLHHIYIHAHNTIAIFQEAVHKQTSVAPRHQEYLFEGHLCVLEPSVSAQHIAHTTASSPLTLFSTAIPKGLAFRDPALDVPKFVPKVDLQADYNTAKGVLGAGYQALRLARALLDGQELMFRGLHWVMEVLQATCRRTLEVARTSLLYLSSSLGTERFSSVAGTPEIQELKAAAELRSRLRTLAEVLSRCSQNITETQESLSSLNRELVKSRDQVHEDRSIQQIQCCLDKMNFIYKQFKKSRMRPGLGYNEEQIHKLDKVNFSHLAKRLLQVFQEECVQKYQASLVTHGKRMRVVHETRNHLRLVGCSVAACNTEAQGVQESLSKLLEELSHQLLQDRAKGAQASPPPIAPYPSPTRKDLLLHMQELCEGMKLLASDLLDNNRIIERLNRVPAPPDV
Procedure: IKKe Biochemical Assay Test compounds were transferred into Labcyte polypropylene 384 well plates ([…]-25) and diluted to 3 mM using DMSO. 3 mM test compounds were dispensed using Labcyte ECHO dose response module into Greiner 784075 plates (columns 3-12 and 13-22, 10 point 1:4) so that high concentration was 30 uM final. 100 uM of a reference compound (1 uM final high concentration). Backfilling was performed if necessary so that all wells contain 1% DMSO final: add 75 nl DMSO/well into columns 1, 2 and 24 using Labcyte Echo. add 75 nl 1.0 mM staurosporine/well into column 23 using Labcyte Echo (10 uM final) add 4.5 ul enzyme/well using multidrop dispenser add 3 ul substrate/well using multidrop dispenser incubate at 25° C. for 90 min. add 7.5 ul 2× stop buffer read on labchip ez reader II using IKKε. job Raw data files were opened in the Caliper LabChip Reviewer program (Version 3.0.265.0 SP2) and peak assignments were adjusted to reflect “substrate first” with the software's post-run analysis options. A spline-fit baseline was applied using the software's analysis algorithm.

Chain of TBK1 (Q9UHD2 whole entry, species assumed): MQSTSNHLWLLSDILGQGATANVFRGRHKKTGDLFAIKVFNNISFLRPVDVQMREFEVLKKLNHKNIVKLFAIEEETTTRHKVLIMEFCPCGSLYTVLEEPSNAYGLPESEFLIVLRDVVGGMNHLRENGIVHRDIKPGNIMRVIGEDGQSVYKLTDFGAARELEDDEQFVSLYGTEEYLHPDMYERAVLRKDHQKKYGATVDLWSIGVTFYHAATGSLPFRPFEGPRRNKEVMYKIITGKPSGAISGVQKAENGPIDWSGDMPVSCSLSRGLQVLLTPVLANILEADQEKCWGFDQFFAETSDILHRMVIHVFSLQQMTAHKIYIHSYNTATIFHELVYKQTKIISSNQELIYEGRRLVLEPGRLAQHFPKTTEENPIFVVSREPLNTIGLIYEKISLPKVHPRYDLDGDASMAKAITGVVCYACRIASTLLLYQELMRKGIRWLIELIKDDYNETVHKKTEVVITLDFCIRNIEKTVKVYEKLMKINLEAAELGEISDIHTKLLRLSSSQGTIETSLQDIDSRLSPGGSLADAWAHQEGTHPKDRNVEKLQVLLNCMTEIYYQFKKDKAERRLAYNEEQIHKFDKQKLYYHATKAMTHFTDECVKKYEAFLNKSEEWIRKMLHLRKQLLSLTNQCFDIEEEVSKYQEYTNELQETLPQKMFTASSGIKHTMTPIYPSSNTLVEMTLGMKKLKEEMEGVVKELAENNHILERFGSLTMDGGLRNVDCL

Row | SMILES | IC50 (TBK1) | IC50 (IKKe)
1 | COc1nc(Nc2cc(-c3ccc(OC4CCOCC4)c(C#N)c3)ncn2)ccc1C(=O)N1CC2CC(C1)O2 [Example 3, 5-(6-[[6-methoxy-5-([6-oxa-3-azabicyclo[3.1.1]heptan-3-yl]carbonyl)pyridin-2-yl]amino]pyrimidin-4-yl)-2-(oxan-4-yloxy)benzonitrile] | < 100 nM | < 100 nM
2 | COc1nc(Nc2cc(-c3ccc(OC4CCOCC4)c(C#N)c3)ncn2)ccc1C(=O)NC1CCN(C)CC1 [Example 7, 6-([6-[3-cyano-4-(oxan-4-yloxy)phenyl]pyrimidin-4-yl]amino)-2-methoxy-N-(1-methylpiperidin-4-yl)pyridine-3-carboxamide hydrochloride] | < 100 nM | < 100 nM
3 | COc1nc(Nc2cc(-c3ccc(OC4CCOCC4)c(C#N)n3)ncn2)ccc1C(=O)N(C)C [Example 8, 6-([6-[6-cyano-5-(oxan-4-yloxy)pyridin-2-yl]pyrimidin-4-yl]amino)-2-methoxy-N,N-dimethylpyridine-3-carboxamide] | 1000 to 5000 nM | 1000 to 5000 nM
4 | COc1nc(Nc2cc(-c3ccc(OC4CCOCC4)c(C#N)c3)ncn2)ccc1N1C[C@@H](C)O[C@@H](C)C1 [Example 15, 5-[6-([5-[(2R,6S)-2,6-dimethylmorpholin-4-yl]-6-methoxypyridin-2-yl]amino)pyrimidin-4-yl]-2-(oxan-4-yloxy)benzonitrile] | < 100 nM | < 100 nM
5 | COc1nc(Nc2cc(-c3ccc(OC4CCOCC4)c(C#N)c3)ncn2)ccc1N1C[C@@H](C)N(C2COC2)[C@@H](C)C1 [Example 16, 5-[6-([5-[(3R,5S)-3,5-dimethyl-4-(oxetan-3-yl)piperazin-1-yl]-6-methoxypyridin-2-yl]amino)pyrimidin-4-yl]-2-(oxan-4-yloxy)benzonitrile] | < 100 nM | < 100 nM
6 | COc1nc(Nc2cc(-c3ccc(OC4CCOCC4)c(C#N)c3)ncn2)ccc1C1CCNCC1 [Example 17, 5-(6-[[6-methoxy-5-(piperidin-4-yl)pyridin-2-yl]amino]pyrimidin-4-yl)-2-(oxan-4-yloxy)benzonitrile] | < 100 nM | < 100 nM
7 | COc1nc(Nc2cc(-c3ccc(OC4CCOCC4)c(C#N)c3)ncn2)ccc1C1CCN(C)CC1 [Example 18, 5-(6-[[6-methoxy-5-(1-methylpiperidin-4-yl)pyridin-2-yl]amino]pyrimidin-4-yl)-2-(oxan-4-yloxy)benzonitrile] | < 100 nM | < 100 nM
8 | COc1nc(Nc2cc(-c3ccc(OC4CCOCC4)c(C#N)c3)ncn2)ccc1CNC1CCN(C)CC1 [Example 19, 5-[6-[(6-methoxy-5-[[(1-methylpiperidin-4-yl)amino]methyl]pyridin-2-yl)amino]pyrimidin-4-yl]-2-(oxan-4-yloxy)benzonitrile] | < 100 nM | < 100 nM
9 | COc1nc(Nc2cc(-c3ccc(OC4CCOCC4)c(C#N)c3)ncn2)ccc1C1CCN(C)C1 (stereo not shown) [Example 20, 5-(6-[[6-methoxy-5-(1-methylpyrrolidin-3-yl)pyridin-2-yl]amino]pyrimidin-4-yl)-2-(oxan-4-yloxy)benzonitrile] | < 100 nM | < 100 nM
10 | COc1nc(Nc2cc(-c3cc(C#N)c(OC4CCOCC4)cn3)ncn2)ccc1N1CCN(C)CC1 [Example 21, 2-(6-[[6-methoxy-5-(4-methylpiperazin-1-yl)pyridin-2-yl]amino]pyrimidin-4-yl)-5-(oxan-4-yloxy)pyridine-4-carbonitrile] | < 100 nM | < 100 nM
11 | COc1nc(Nc2cc(-c3ccc(OC4CCOCC4)c(C#N)n3)ncn2)ccc1N1CCN(C)CC1 [Example 22, 6-(6-[[6-methoxy-5-(4-methylpiperazin-1-yl)pyridin-2-yl]amino]pyrimidin-4-yl)-3-(oxan-4-yloxy)pyridine-2-carbonitrile] | 100 to 1000 nM | 100 to 1000 nM
12 | COc1nc(Nc2cc(-c3cnc(OC4CCOCC4)c(C#N)c3)ncn2)ccc1N1CCN(C)CC1 [Example 23, 5-(6-[[6-methoxy-5-(4-methylpiperazin-1-yl)pyridin-2-yl]amino]pyrimidin-4-yl)-2-(oxan-4-yloxy)pyridine-3-carbonitrile] | < 100 nM | < 100 nM
13 | COc1nc(Nc2cc(-c3cc(C#N)c(OC4CCOCC4)cn3)ncn2)ccc1C1CCN(C)CC1 [Example 24, 2-(6-[[6-methoxy-5-(1-methylpiperidin-4-yl)pyridin-2-yl]amino]pyrimidin-4-yl)-5-(oxan-4-yloxy)pyridine-4-carbonitrile] | < 100 nM | < 100 nM
14 | COc1nc(Nc2cc(-c3ccc(O[C@@H]4CCN(C(=O)CO)CC4(F)F)c(C#N)c3)ncn2)ccc1N1CCN(C)CC1 [Example 61, 2-[[(4R)-3,3-difluoro-1-(2-hydroxyacetyl)piperidin-4-yl]oxy]-5-(6-[[6-methoxy-5-(4-methylpiperazin-1-yl)pyridin-2-yl]amino]pyrimidin-4-yl)benzonitrile] | < 100 nM | –

The remaining lines, values ahead:

Row | IC50 (TBK1) | IC50 (IKKe) | SMILES
15 | < 100 nM | < 100 nM | COc1nc(Nc2cc(-c3ccc(OC4CCOCC4)c(C#N)c3)ncn2)ccc1C(=O)N(C)C [Example 1, 6-([6-[3-cyano-4-(oxan-4-yloxy)phenyl]pyrimidin-4-yl]amino)-2-methoxy-N,N-dimethylpyridine-3-carboxamide]
16 | < 100 nM | < 100 nM | COc1nc(Nc2cc(-c3ccc(OC4CCOCC4)c(C#N)c3)ncn2)ccc1C(=O)N(C)CCO [Example 2, 6-([6-[3-cyano-4-(oxan-4-yloxy)phenyl]pyrimidin-4-yl]amino)-N-(2-hydroxyethyl)-2-methoxy-N-methylpyridine-3-carboxamide]
17 | < 100 nM | < 100 nM | COc1nc(Nc2cc(-c3ccc(OC4CCOCC4)c(C#N)c3)ncn2)ccc1C(=O)NC1C2COCC21 (stereo not shown) [Example 4, 6-([6-[3-cyano-4-(oxan-4-yloxy)phenyl]pyrimidin-4-yl]amino)-2-methoxy-N-[3-oxabicyclo[3.1.0]hexan-6-yl]pyridine-3-carboxamide]
18 | < 100 nM | < 100 nM | COc1nc(Nc2cc(-c3ccc(OC4CCOCC4)c(C#N)c3)ncn2)ccc1C(=O)N1CC2CCC(C1)O2 [Example 5, 5-(6-((5-(8-oxa-3-azabicyclo[3.2.1]octane-3-carbonyl)-6-methoxypyridin-2-yl)amino)pyrimidin-4-yl)-2-((tetrahydro-2H-pyran-4-yl)oxy)benzonitrile]
19 | < 100 nM | < 100 nM | COc1nc(Nc2cc(-c3ccc(OC4CCOCC4)c(C#N)c3)ncn2)ccc1C(=O)N1CC2COCC2C1 (stereo not shown) [Example 6, 5-(6-[[5-([hexahydro-1H-furo[3,4-c]pyrrol-5-yl]carbonyl)-6-methoxypyridin-2-yl]amino]pyrimidin-4-yl)-2-(oxan-4-yloxy)benzonitrile]
20 | < 100 nM | < 100 nM | COc1nc(Nc2cc(-c3cnc(OC4CCOCC4)c(C#N)c3)ncn2)ccc1C(=O)N(C)C [Example 9, 6-([6-[5-cyano-6-(oxan-4-yloxy)pyridin-3-yl]pyrimidin-4-yl]amino)-2-methoxy-N,N-dimethylpyridine-3-carboxamide hydrochloride]
21 | < 100 nM | < 100 nM | COc1nc(Nc2cc(-c3ccc(OC4CCOCC4)c(C#N)c3)ncn2)ccc1N1CCS(=O)(=O)CC1 [Example 10, 5-(6-[[5-(1,1-dioxo-1λ,4-thiomorpholin-4-yl)-6-methoxypyridin-2-yl]amino]pyrimidin-4-yl)-2-(oxan-4-yloxy)benzonitrile]
22 | < 100 nM | < 100 nM | COc1nc(Nc2cc(-c3ccc(OC4CCOCC4)c(C#N)c3)ncn2)ccc1N(C)CCN(C)C [Example 11, 5-[6-[(5-[[2-(dimethylamino)ethyl](methyl)amino]-6-methoxypyridin-2-yl)amino]pyrimidin-4-yl]-2-(oxan-4-yloxy)benzonitrile]
23 | < 100 nM | < 100 nM | COc1nc(Nc2cc(-c3ccc(OC4CCOCC4)c(C#N)c3)ncn2)ccc1N1CCN(C)CC1 [Example 12, 5-(6-[[6-methoxy-5-(4-methylpiperazin-1-yl)pyridin-2-yl]amino]pyrimidin-4-yl)-2-(oxan-4-yloxy)benzonitrile]
24 | < 100 nM | < 100 nM | COc1nc(Nc2cc(-c3ccc(OC4CCOCC4)c(C#N)c3)ncn2)ccc1N(C)CC(=O)N(C)C [Example 13, 2-[[6-([6-[3-cyano-4-(oxan-4-yloxy)phenyl]pyrimidin-4-yl]amino)-2-methoxypyridin-3-yl](methyl)amino]-N,N-dimethylacetamide]
25 | < 100 nM | < 100 nM | COc1nc(Nc2cc(-c3ccc(OC4CCOCC4)c(C#N)c3)ncn2)ccc1N1CCN(CC(F)F)CC1 [Example 14, 5-[6-([5-[4-(2,2-difluoroethyl)piperazin-1-yl]-6-methoxypyridin-2-yl]amino)pyrimidin-4-yl]-2-(oxan-4-yloxy)benzonitrile]
